In ChEMBL document CHEMBL1782045, “Discovery, synthesis, and investigation of the antitumor activity of novel piperazinylpyrimidine derivatives” (Eur J Med Chem, 2011):

Experiments:
[1] = target: Receptor-type tyrosine-protein kinase FLT3 (Homo sapiens) (UniProt P36888); assay: Inhibition of human FLT3 using gamma-33P-ATP as substrate assessed as enzyme functional activity at 1 uM by scintillation counting relative to untreated control; parameters: scale not given: the % may be the effect or the level left
[2] = target: Hepatocyte growth factor receptor (Homo sapiens, UniProt P08581); assay: Inhibition of human MET using gamma-33P-ATP as substrate assessed as enzyme functional activity at 1 uM by scintillation counting relative to untreated control; parameters: scale not given: the % may be the effect or the level left
SNB-75 = assay: Cytotoxicity against human SNB75 cells after 48 hrs by sulforhodamine B assay; format: cell-based; details: snb-75, 48 h
K562 = assay: Cytotoxicity against human K562 cells after 48 hrs by sulforhodamine B assay; format: cell-based; details: k562, 48 h
[3] = target: Casein kinase I isoform alpha (Homo sapiens) (UniProt P48729); assay: Binding affinity to human CSNK1A1 at 10 uM incubated for 1 hr by kinase binding assay relative to untreated control
[4] = target: Cyclin-dependent kinase 8 (Homo sapiens) (UniProt P49336); assay: Binding affinity to human CDK8 at 10 uM incubated for 1 hr by kinase binding assay relative to untreated control
LOX IMVI = assay: Cytotoxicity against human LOXIMVI cells after 48 hrs by sulforhodamine B assay; format: cell-based
OVCAR-8 = assay: Growth inhibition of human OVCAR8 cells after 48 hrs by sulforhodamine B assay; format: functional; details: OVCAR-8, 48 h
MDA-MB-435 = assay: Cytotoxicity against human MDA-MB-435 cells after 48 hrs by sulforhodamine B assay; format: cell-based; details: mda-mb-435, 48 h
[5] = system: Platelet-derived growth factor receptor alpha (Homo sapiens), P16234 [V561D]; assay: Inhibition of human PDGFRA V561D using gamma-33P-ATP as substrate assessed as enzyme functional activity at 1 uM by scintillation counting relative to untreated control; parameters: scale not given: the % may be the effect or the level left
SW-620 [6] = assay: Cytotoxicity against human SW620 cells after 48 hrs by sulforhodamine B assay; format: cell-based; details: sw-620, 48 h
[7] = target: T1, Mitogen-activated protein kinase 12 (Homo sapiens) (UniProt P53778); assay: Binding affinity to human p38-gamma at 10 uM incubated for 1 hr by kinase binding assay relative to untreated control
T1 sequence (whole entry): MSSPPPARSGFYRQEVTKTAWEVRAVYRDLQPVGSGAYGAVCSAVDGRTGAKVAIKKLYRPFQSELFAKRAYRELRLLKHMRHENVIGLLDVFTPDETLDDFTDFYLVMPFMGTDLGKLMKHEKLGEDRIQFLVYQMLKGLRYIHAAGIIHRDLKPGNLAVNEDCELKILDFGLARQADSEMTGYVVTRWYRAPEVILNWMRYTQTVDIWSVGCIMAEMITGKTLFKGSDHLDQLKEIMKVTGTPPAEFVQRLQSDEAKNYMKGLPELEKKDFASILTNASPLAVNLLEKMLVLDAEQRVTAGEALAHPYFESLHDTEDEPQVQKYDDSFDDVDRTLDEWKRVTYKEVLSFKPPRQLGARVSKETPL

NCI-H23 [8] = assay: Cytotoxicity against human NCI-H23 cells after 48 hrs by sulforhodamine B assay; format: cell-based; details: nci-h23, 48 h
T47D = assay: Cytotoxicity against human T47D cells after 48 hrs by sulforhodamine B assay; format: cell-based
HT-29 [9] = assay: Cytotoxicity against human HT-29 cells after 48 hrs by sulforhodamine B assay; format: cell-based; details: ht-29, 48 h
[10] = target: Macrophage colony-stimulating factor 1 receptor (Homo sapiens) (UniProt P07333); assay: Binding affinity to human CSF1R at 10 uM incubated for 1 hr by kinase binding assay relative to untreated control
HOP-62 = assay: Growth inhibition of human HOP62 cells after 48 hrs by sulforhodamine B assay; format: functional; details: HOP-62, 48 h
SK-OV-3 [11] = assay: Cytotoxicity against human SKOV3 cells after 48 hrs by sulforhodamine B assay; format: cell-based; details: sk-ov-3, 48 h
Hs-578T = assay: Growth inhibition of human Hs578T cells after 48 hrs by sulforhodamine B assay; format: functional
HCC 2998 [12] = assay: Cytotoxicity against human HCC2998 cells after 48 hrs by sulforhodamine B assay; format: cell-based; details: hcc 2998, 48 h
MDA-MB-231 = assay: Growth inhibition of human MDA-MB-231 cells after 48 hrs by sulforhodamine B assay; format: functional; details: MDA-MB-231, 48 h
SW-620 [13] = assay: Growth inhibition of human SW620 cells after 48 hrs by sulforhodamine B assay; format: functional; details: SW-620, 48 h
KM12 = assay: Cytotoxicity against human KM12 cells after 48 hrs by sulforhodamine B assay; format: cell-based; details: km12, 48 h
MCF7 = assay: Cytotoxicity against human MCF7 cells after 48 hrs by sulforhodamine B assay; format: cell-based; details: mcf7, 48 h
[14] = target: Serine/threonine-protein kinase B-raf (Homo sapiens) (UniProt P15056); assay: Binding affinity to human BRAF at 10 uM incubated for 1 hr by kinase binding assay relative to untreated control
NCI/ADR-RES [15] = assay: Growth inhibition of human NCI/ADR-RES cells after 48 hrs by sulforhodamine B assay; format: functional
HT-29 [16] = assay: Growth inhibition of human HT-29 cells after 48 hrs by sulforhodamine B assay; format: functional; details: HT-29, 48 h
HOP-92 = assay: Cytotoxicity against human HOP92 cells after 48 hrs by sulforhodamine B assay; format: cell-based; details: hop-92, 48 h
UO-31 = assay: Growth inhibition of human UO31 cells after 48 hrs by sulforhodamine B assay; format: functional; details: UO-31, 48 h
COLO 205 = assay: Growth inhibition of human COLO205 cells after 48 hrs by sulforhodamine B assay; format: functional; details: COLO 205, 48 h
Malme-3M = assay: Cytotoxicity against human MALME-3M cells after 48 hrs by sulforhodamine B assay; format: cell-based
OVCAR-4 = assay: Cytotoxicity against human OVCAR4 cells after 48 hrs by sulforhodamine B assay; format: cell-based; details: ovcar-4, 48 h
HL-60(TB) = assay: Growth inhibition of human HL-60(TB) cells after 48 hrs by sulforhodamine B assay; format: functional; details: HL-60, 48 h
NCI/ADR-RES [17] = assay: Cytotoxicity against human NCI/ADR-RES cells after 48 hrs by sulforhodamine B assay; format: cell-based
SK-MEL-28 = assay: Growth inhibition of human SK-MEL-28 cells after 48 hrs by sulforhodamine B assay; format: functional; details: SK-MEL-28, 48 h
SK-OV-3 [18] = assay: Growth inhibition of human SKOV3 cells after 48 hrs by sulforhodamine B assay; format: functional; details: SK-OV-3, 48 h
BT-549 = assay: Growth inhibition of human BT549 cells after 48 hrs by sulforhodamine B assay; format: functional; details: BT-549, 48 h
HCC 2998 [19] = assay: Growth inhibition of human HCC2998 cells after 48 hrs by sulforhodamine B assay; format: functional; details: HCC 2998, 48 h
SK-MEL-5 = assay: Growth inhibition of human SK-MEL-5 cells after 48 hrs by sulforhodamine B assay; format: functional; details: SK-MEL-5, 48 h
NCI-H23 [20] = assay: Growth inhibition of human NCI-H23 cells after 48 hrs by sulforhodamine B assay; format: functional; details: NCI-H23, 48 h

Chain of Macrophage colony-stimulating factor 1 receptor (Homo sapiens) (P07333 whole entry): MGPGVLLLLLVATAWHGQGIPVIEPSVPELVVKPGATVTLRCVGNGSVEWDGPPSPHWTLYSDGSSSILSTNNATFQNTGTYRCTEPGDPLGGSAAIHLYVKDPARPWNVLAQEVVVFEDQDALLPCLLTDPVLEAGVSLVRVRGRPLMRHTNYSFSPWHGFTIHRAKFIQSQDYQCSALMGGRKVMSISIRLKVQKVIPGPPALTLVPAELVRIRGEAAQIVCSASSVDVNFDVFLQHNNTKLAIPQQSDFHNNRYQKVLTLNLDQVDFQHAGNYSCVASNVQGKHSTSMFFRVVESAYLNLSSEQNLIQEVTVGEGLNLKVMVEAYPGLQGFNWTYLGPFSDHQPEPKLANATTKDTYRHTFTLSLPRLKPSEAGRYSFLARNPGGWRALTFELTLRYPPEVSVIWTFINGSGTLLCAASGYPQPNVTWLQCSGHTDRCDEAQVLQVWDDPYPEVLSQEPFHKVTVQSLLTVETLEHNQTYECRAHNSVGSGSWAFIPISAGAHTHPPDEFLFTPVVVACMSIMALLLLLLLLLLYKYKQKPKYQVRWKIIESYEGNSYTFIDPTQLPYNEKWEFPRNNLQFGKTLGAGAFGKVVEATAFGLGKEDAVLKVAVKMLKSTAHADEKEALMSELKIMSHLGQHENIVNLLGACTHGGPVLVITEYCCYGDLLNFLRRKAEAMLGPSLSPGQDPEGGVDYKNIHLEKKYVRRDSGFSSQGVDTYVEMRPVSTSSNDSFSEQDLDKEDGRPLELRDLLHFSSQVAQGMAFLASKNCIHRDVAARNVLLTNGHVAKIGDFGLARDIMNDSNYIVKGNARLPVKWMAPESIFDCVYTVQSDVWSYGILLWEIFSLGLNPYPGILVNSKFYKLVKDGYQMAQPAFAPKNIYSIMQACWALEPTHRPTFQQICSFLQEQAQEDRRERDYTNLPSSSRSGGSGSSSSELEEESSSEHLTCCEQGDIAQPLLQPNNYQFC
Chain of Cyclin-dependent kinase 8 (Homo sapiens) (P49336 whole entry): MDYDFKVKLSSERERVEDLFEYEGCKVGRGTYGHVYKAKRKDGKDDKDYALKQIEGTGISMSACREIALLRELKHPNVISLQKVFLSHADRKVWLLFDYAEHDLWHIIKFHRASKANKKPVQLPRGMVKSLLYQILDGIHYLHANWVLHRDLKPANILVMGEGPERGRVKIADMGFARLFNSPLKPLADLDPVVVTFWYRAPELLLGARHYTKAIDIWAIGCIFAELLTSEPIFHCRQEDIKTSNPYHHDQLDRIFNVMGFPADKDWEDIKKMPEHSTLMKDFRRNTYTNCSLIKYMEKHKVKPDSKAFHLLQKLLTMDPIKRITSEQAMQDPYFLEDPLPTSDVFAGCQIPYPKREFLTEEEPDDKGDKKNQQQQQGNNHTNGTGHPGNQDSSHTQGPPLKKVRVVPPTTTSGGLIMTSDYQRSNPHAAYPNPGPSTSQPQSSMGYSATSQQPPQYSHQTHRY
Chain of Hepatocyte growth factor receptor (P08581 whole entry): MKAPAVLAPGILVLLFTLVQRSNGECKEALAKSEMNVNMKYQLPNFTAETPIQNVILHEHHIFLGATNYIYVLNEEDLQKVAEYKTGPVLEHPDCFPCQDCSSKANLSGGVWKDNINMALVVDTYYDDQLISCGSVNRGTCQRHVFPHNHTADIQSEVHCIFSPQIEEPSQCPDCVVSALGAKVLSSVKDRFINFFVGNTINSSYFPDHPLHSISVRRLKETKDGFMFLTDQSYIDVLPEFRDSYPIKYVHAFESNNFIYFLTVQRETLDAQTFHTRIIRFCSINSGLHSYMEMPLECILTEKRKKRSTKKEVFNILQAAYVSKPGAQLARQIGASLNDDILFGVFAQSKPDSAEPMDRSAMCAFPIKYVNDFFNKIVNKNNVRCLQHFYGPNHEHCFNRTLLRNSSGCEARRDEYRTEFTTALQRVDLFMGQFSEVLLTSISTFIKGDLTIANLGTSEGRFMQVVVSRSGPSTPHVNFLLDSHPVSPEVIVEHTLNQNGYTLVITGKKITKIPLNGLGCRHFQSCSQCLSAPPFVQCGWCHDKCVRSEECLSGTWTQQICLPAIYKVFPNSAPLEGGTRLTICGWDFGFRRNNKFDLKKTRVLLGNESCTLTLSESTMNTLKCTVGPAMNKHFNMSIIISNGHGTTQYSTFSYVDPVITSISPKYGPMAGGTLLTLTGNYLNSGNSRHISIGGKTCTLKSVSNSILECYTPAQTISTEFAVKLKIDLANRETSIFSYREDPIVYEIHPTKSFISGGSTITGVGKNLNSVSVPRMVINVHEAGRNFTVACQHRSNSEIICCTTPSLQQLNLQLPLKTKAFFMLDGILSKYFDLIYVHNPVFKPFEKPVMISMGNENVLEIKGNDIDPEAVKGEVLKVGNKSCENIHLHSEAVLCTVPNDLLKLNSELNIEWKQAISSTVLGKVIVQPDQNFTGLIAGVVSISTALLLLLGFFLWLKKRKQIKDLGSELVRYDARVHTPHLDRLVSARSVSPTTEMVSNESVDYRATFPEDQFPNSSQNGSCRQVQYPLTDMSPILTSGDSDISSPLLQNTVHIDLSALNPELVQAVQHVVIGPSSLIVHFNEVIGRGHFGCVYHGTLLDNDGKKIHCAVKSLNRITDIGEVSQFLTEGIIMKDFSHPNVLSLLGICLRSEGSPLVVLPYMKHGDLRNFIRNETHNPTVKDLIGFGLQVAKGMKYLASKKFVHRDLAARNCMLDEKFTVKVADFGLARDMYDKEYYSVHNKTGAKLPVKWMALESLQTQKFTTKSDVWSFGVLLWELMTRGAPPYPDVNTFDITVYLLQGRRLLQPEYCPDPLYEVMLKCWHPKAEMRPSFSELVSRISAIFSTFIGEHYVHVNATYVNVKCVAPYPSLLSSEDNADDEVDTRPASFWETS
Chain of Platelet-derived growth factor receptor alpha (Homo sapiens), P16234 [V561D] (P16234 whole entry V561D): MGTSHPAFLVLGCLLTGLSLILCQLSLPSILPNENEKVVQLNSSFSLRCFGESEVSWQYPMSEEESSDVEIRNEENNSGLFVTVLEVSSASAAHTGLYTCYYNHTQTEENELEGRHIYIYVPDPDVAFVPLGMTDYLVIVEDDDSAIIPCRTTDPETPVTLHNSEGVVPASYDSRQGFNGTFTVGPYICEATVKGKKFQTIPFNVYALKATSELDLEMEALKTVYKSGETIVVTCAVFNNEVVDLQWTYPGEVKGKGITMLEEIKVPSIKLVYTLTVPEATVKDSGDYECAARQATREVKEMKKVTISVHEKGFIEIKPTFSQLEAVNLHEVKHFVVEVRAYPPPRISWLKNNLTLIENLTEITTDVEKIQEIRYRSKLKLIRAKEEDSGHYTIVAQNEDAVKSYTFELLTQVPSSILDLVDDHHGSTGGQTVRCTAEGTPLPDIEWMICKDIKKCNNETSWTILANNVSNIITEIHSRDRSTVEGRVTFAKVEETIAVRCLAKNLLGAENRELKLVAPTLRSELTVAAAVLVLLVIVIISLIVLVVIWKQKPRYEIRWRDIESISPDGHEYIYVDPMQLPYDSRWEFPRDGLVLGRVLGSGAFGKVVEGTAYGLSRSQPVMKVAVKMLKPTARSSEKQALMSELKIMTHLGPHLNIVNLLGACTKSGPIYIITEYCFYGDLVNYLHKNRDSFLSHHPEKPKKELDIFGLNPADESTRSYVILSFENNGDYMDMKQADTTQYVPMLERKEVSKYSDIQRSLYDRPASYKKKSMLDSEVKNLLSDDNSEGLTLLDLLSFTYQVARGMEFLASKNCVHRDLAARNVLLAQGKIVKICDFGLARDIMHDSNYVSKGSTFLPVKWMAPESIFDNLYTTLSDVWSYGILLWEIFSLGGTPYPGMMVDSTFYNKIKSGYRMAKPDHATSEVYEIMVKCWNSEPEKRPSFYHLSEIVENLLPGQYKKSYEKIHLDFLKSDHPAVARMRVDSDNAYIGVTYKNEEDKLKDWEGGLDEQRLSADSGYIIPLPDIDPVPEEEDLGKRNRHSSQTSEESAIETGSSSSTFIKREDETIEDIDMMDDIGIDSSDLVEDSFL
Chain of Receptor-type tyrosine-protein kinase FLT3 (Homo sapiens) (P36888 whole entry): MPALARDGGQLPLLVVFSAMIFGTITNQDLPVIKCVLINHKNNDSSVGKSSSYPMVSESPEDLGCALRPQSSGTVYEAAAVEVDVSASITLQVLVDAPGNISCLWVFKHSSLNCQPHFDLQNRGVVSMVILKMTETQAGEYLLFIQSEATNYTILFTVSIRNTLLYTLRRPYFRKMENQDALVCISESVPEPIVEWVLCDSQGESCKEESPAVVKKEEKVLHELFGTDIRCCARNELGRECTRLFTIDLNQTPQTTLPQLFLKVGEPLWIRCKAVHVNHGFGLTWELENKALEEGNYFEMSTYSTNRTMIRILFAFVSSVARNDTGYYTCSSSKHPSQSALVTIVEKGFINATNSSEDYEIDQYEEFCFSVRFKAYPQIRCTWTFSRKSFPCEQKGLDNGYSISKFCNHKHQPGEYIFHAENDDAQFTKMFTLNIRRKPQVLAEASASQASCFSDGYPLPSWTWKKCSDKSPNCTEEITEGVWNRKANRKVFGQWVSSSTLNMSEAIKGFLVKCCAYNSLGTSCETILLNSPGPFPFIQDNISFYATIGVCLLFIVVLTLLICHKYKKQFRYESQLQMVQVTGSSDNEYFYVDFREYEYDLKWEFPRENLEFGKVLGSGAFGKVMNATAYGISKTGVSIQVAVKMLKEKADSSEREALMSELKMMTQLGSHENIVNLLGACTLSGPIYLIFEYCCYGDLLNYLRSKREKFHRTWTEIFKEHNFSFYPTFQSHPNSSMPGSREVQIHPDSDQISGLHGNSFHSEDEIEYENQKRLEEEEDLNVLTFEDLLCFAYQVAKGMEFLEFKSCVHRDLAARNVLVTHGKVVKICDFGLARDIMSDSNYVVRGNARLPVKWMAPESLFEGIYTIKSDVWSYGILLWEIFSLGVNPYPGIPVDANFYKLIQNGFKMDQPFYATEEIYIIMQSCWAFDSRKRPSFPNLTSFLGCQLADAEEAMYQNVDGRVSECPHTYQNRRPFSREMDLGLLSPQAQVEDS

Compound | Activity [1] | Activity [2] | LC50 (SNB-75) | LC50 (K562) | Activity [3] | Activity [4] | LC50 (LOX IMVI) | LC50 (MDA-MB-435) | Activity [5] | LC50 (SW-620 [6]) | Activity [7] | LC50 (NCI-H23 [8]) | LC50 (T47D) | LC50 (HT-29 [9]) | Activity [10] | TGI (HOP-62) | LC50 (SK-OV-3 [11]) | LC50 (HCC 2998 [12]) | TGI (MDA-MB-231) | TGI (SW-620 [13]) | further results
CCc1cnc(N2CCN(C(=O)c3ccc(CNc4ncnc5ccccc45)cc3)CC2)nc1 | 80% | 100% | > 100 µM | > 100 µM | 36% | > 50% | 97.3 µM | > 100 µM | 100% | > 100 µM | > 50% | > 100 µM | > 100 µM | > 100 µM | > 50% | > 100 µM | > 100 µM | > 100 µM | 84.9 µM | 45.1 µM | TGI (OVCAR-8): > 100 µM; TGI (Hs-578T): > 100 µM; LC50 (KM12): 53.8 µM; LC50 (MCF7): > 100 µM; Activity [14]: 34%; TGI (NCI/ADR-RES [15]): 21.5 µM; TGI (HT-29 [16]): 83.2 µM; LC50 (HOP-92): > 100 µM; TGI (UO-31): 60.5 µM; TGI (COLO 205): 38.2 µM; LC50 (Malme-3M): > 100 µM; LC50 (OVCAR-4): > 100 µM; TGI (HL-60(TB)): 38.6 µM; LC50 (NCI/ADR-RES [17]): > 100 µM; TGI (SK-MEL-28): > 100 µM; TGI (SK-OV-3 [18]): > 100 µM
c1ccc(Cc2cnc(N3CCN(c4ncnc5ccccc45)CC3)nc2)cc1 | 74% | 75% | > 100 µM | > 100 µM | > 50% | 3.4% | 44.3 µM | 91.4 µM | 20% | 59.9 µM | > 50% | > 100 µM | > 100 µM | 79.2 µM | 31% | 51.6 µM | > 100 µM | > 100 µM | 38.1 µM | 27.7 µM | TGI (BT-549): 18.4 µM; TGI (HCC 2998 [19]): 60.9 µM; TGI (OVCAR-8): 25.6 µM; LC50 (KM12): 50.1 µM; LC50 (MCF7): > 100 µM; Activity [14]: > 50%; TGI (NCI/ADR-RES [15]): 17.6 µM; TGI (SK-MEL-5): 13.9 µM; TGI (HT-29 [16]): 35.1 µM; LC50 (HOP-92): 62 µM; TGI (UO-31): 38.4 µM; TGI (COLO 205): > 100 µM; TGI (NCI-H23 [20]): 30.8 µM; LC50 (Malme-3M): 89.2 µM; LC50 (OVCAR-4): > 100 µM; TGI (HL-60(TB)): 41.8 µM; LC50 (NCI/ADR-RES [17]): 66.4 µM; TGI (SK-MEL-28): 99.3 µM; TGI (SK-OV-3 [18]): > 100 µM
O=C(c1cccc(Nc2ncnc3ccccc23)c1)N1CCN(c2ncc(Cc3ccccc3)cn2)CC1 | 95% | 100% | > 100 µM | > 100 µM | > 50% | > 50% | 5.13 µM | 4.57 µM | 100% | > 100 µM | 25% | 6.92 µM | 5.62 µM | > 100 µM | > 50% | 3.47 µM | > 100 µM | 8.91 µM | 2.95 µM | 4.27 µM | TGI (BT-549): 1.74 µM; TGI (HCC 2998 [19]): 3.98 µM; TGI (Hs-578T): 7.41 µM; LC50 (KM12): 6.61 µM; LC50 (MCF7): 5.62 µM; Activity [14]: > 50%; TGI (NCI/ADR-RES [15]): 8.51 µM; TGI (SK-MEL-5): 1.2 µM; TGI (HT-29 [16]): 9.33 µM; LC50 (HOP-92): > 100 µM; TGI (COLO 205): 2.75 µM; TGI (NCI-H23 [20]): 2.69 µM; LC50 (Malme-3M): 5.25 µM; LC50 (OVCAR-4): 7.59 µM; LC50 (NCI/ADR-RES [17]): > 100 µM; TGI (SK-OV-3 [18]): 4.47 µM
